Source: patent publication US20250387358A1 (SpringWorks Therapeutics, Inc., priority 2024, published 2025)

Test system: NF1-associated plexiform neurofibromas (PNs)
Test: Phase 2b trial, efficacy by BICR volumetric MRI per REiNS criteria
Format: in vivo, human
Conditions: observed time
Protocol: Participants were screened (assessed for eligibility as described below). […] The median age was 34.5 years (range 18 to 69 years); 85% were white and 64% were female. […] The most commonly reported morbidities were pain (90%) and disfigurement or major deformity (52%).
The median age was 10 years (range 2 to 17 years); 66% were white and 54% were female. […] The most commonly reported morbidities were pain (70%) and disfigurement or major deformity (50%).
Study treatment was administered orally at a twice daily (BID) dose specified in the table below. Dosing was on a 28-day Cycle (4-week course) with a 3 week on/1 week off schedule. The treatment period will last for up to 24 Cycles followed by a 30-day Safety Follow-Up period.
A partial response was defined as PN decrease ≥20% compared to baseline using centrally read MRI volumetric analysis.
The major efficacy outcome measure was confirmed objective response rate (ORR), defined as the percentage of patients with complete response (disappearance of the target PN) or confirmed partial response (≥20% reduction in PN volume confirmed at a subsequent tumor assessment within 2-6 months during the 24-cycle treatment phase). Responses were assessed by blinded independent central review (BICR) using volumetric magnetic resonance imaging (MRI) analysis per Response Evaluation in Neurofibromatosis and Schwannomatosis (REINS) criteria. A secondary efficacy objective was to determine the duration of response for patients who achieved a confirmed objective response.

[1] = Pediatric, first DoR line (r12)
[2] = Pediatric, second DoR line (r13)

Compound: O=C(NOC[C@H](O)CO)c1ccc(F)c(F)c1Nc1ccc(I)cc1F (single isomer, unassigned) [mirdametinib]
- DoR ≥12 months, % of responders (Adult, first DoR line (r12)): (88%)
- DoR ≥12 months, number of responders (Adult, first DoR line (r12)): 21
- DoR ≥12 months, % of responders (Adult, second DoR line (r13)): (48%)
- DoR ≥12 months, number of responders (Adult, second DoR line (r13)): 14
- DoR ≥12 months, % of responders [1]: (90%)
- DoR ≥12 months, number of responders [1]: 26
- DoR ≥12 months, % of responders [2]: (66%)
- DoR ≥12 months, number of responders [2]: 19
